Columns and labels:
Assay type in all cases: in vivo
[1] = tested on: Ba/F3-EpoR-JAK2^V617F cells; assay: Spleen weight at study endpoint in mouse MPN model
Procedure: (§1) The combination of Compound A, Compound B and Compound C was examined in a mouse model of MPN. In this model, Ba/F3 cells harbored Epo Receptor and JAK2 V617F mutations. Ba/F3-EpoR-JAK2^V617F was engineered with a luciferase tag for experimental imaging. Female SCID/Beige mice were inoculated with 1x10e6 Ba/F3-EpoR-JAK2^V617F cells through the tail vein. […] Additionally, JAK2V617F allele burden, defined as the relative ratio of JAK2V617F over wild type JAK2, is measured by taqman in PBMCs at study endpoint.
(§2) In the first experiment, disease-bearing mice were randomized into treatment cohorts, based on the disease burden. Mice were treated with vehicle, Compound B at 75 mg/kg, by oral gavage (PO) daily (QD), Compound A at 60 mg/kg, PO, twice daily (BID) and the combination of both agents. At study endpoint, spleen weight from each of the study cohorts was obtained. Relative change in the spleen weight was calculated by normalizing individual spleen weight against the mean spleen weight of the cohort receiving vehicle treatment.
In the second experiment, disease-bearing mice were randomized into treatment cohort, based on the disease burden. Mice were treated with vehicle, Compound A at 60 mg/kg, PO, twice daily (BID), and the triple combination of Compound A, Compound B (at 75 mg/kg, QD, PO) and Compound C (at 25 mg/kg, QD, PO). At study endpoint, spleen weight from each of the study cohorts was obtained. Relative spleen weight was calculated by normalizing individual spleen weight against the mean spleen weight of the cohort receiving vehicle treatment.

[2] = tested on: Ba/F3-EpoR-JAK2^V617F cells; assay: Total tumor load (bioluminescence, IVIS xenogen) in mouse MPN model; settings: study endpoint; for reduction of total tumor load (level of bioluminescence) relative to the vehicle control: first experiment, FIG. 1, Compound A 60 mg/kg PO BID, Compound B 75 mg/kg PO QD, alone or combined, SCID/Beige mice
Source text: The combination of Compound A, Compound B and Compound C was examined in a mouse model of MPN. In this model, Ba/F3 cells harbored Epo Receptor and JAK2 V617F mutations. Ba/F3-EpoR-JAK2^V617F was engineered with a luciferase tag for experimental imaging. Female SCID/Beige mice were inoculated with 1x10e6 Ba/F3-EpoR-JAK2^V617F cells through the tail vein. Total tumor load was monitored with IVIS xenogen technology. It is defined as the sum of dorsal and ventral photon signal.
In the first experiment, disease-bearing mice were randomized into treatment cohorts, based on the disease burden. Mice were treated with vehicle, Compound B at 75 mg/kg, by oral gavage (PO) daily (QD), Compound A at 60 mg/kg, PO, twice daily (BID) and the combination of both agents.
In the second experiment, disease-bearing mice were randomized into treatment cohort, based on the disease burden. Mice were treated with vehicle, Compound A at 60 mg/kg, PO, twice daily (BID), and the triple combination of Compound A, Compound B (at 75 mg/kg, QD, PO) and Compound C (at 25 mg/kg, QD, PO).

[3] = tested on: JAK2V617F allele burden; assay: JAK2V617F allele burden in PBMC (taqman) at study endpoint in mouse MPN model; settings: second experiment, FIG. 6, Compound A 60 mg/kg PO BID alone or with Compound B 75 mg/kg QD PO and Compound C 25 mg/kg QD PO
Procedure: as §1, §2
In the second experiment, disease-bearing mice were randomized into treatment cohort, based on the disease burden. […] Relative spleen weight was calculated by normalizing individual spleen weight against the mean spleen weight of the cohort receiving vehicle treatment.

[4] = first experiment, FIG. 2, Compound A 60 mg/kg PO BID, Compound B 75 mg/kg PO QD, alone or combined

`CN(C)C(=O)c1cc2cnc(Nc3ccc(N4CCNCC4)cn3)nc2n1C1CCCC1` [Compound B, 7-Cyclopentyl-2-(5-piperazin-1-yl-pyridin-2-ylamino)-7H-pyrrolo[2,3-d]pyrimidine-6-carboxylic acid dimethylamide] was tested, and the “reduction of spleen weight relative to that of the vehicle control” value [1, 4] was about 38% and the “reduction of total tumor load (level of bioluminescence) relative to the vehicle control” value [2] was about 77%.
`N#CC[C@H](C1CCCC1)n1cc(-c2ncnc3[nH]ccc23)cn1` [Compound A, (3R)-3-cyclopentyl-3-[4-(7H-pyrrolo[2,3-d]pyrimidin-4-yl)pyrazol-1-yl]propanenitrile] was tested, and the “reduction of spleen weight relative to that of the vehicle control” value [1, 4] was about 62%, the “reduction of spleen weight relative to that of the vehicle control” value ([1]; second experiment, FIG. 5, Compound A 60 mg/kg PO BID alone or with Compound B 75 mg/kg QD PO and Compound C 25 mg/kg QD PO) was about 53% and the “reduction of total tumor load (level of bioluminescence) relative to the vehicle control” value [2] was about 79%. For the same compound, the “reduction of total tumor load (level of bioluminescence)” value ([2]; second experiment, FIG. 4, Compound A 60 mg/kg PO BID alone or with Compound B 75 mg/kg QD PO and Compound C 25 mg/kg QD PO) was about 70% and the “down-modulation of JAK2V617F allele burden” value [3] was about 15%.

From patent US20180071296A1, “COMBINATION THERAPY COMPRISING AN INHIBITOR OF JAK, CDK, AND PIM” (Novartis AG, priority 2013, published 2018)
